# Measured values as given in patent publication US20120329798A1, “METHODS AND COMPOSITIONS FOR TREATING LUEKEMIA” (priority 2009, published 2012).
# Structures can show the parent of a compound that is named as a salt.
# Tests used:
# [1] = tested on: bone marrow transplant model of Bcr-Abl to induce CML in mice; assay: Bone marrow transplant model of Bcr-Abl induced CML, survival; format: in vivo, mouse; conditions: groups of 8 mice; two week treatment; compound A 80 mg/kg po qd, AMN107 75 mg/kg po qd or combination; FIG. 10
# Method: A bone marrow transplant model of Bcr-Abl was used to induce CML in mice. Briefly, a bicistronic retroviral Bcr-Abl vector (Bcr-Abl-IRES-GFP) was used to produce virus to infect progenitor bone marrow (BM) cells collected from mice previously treated with 5-FU. After 3 rounds of infection, 200,000 GFP positive progenitor BM cells were transplanted into lethally irradiated hosts. Two weeks post-BMT, peripheral blood samples were analyzed by FACS analysis to establish the percentage of GFP positive cells present in the recipient mice. […] During the entire study period the mice were followed for any sign of leukemia development, such as hunched position, lost of body weight or inability of grooming. The animals were sacrificed when they reached any of the previously described signs.
# [2] = tested on: mouse bone marrow cells infected with Bcr-abl retrovirus; assay: Methylcellulose colony formation and re-plating of Bcr-Abl infected bone marrow cells; format: cell-based; conditions: 72 h pre-treatment; for colony formation in the first methylcellulose plating: compared to control DMSO group, FIG. 8
# Description: Colony formation was scored 10 days after plating.
# FIG. 9. Colonies obtained in the 1st plating experiment of FIG. 8 were resuspended and washed in PBS containing 10% FCS. Cells were resuspended in OPTI-MEM media and plated in methylcellulose at a concentration of 5000 cells per 35 mm plate. Colony formation was scored 10 days after plating.
# Mouse bone marrow cells were infected with a bicistronic retroviral Bcr-Abl vector (Bcr-Abl-IRES-GFP). […] Clonogenic colony formation assays assess the self-renewal capacity of early progenitor/stem cells.
# [3] = tested on: primary CD34+ CP CML cells; assay: Colony forming assay and serial re-plating of primary CML cells; format: cell-based, human; conditions: for proliferation index (PI) of re-plated colonies (AUC): 3d nilotinib and/or compound A exposure, 132 colonies per arm, compared to untreated cells, FIG. 7
# Method: Primary cells were obtained from newly diagnosed and untreated patients with CML in chronic phase. These cells were enriched for CD34+using magnetic-activated cell sorting prior to cryopreservation in 10% DMSO and 4% human albumin solution in liquid nitrogen. Samples were thawed and washed in a solution of DNAse, human albumin solution, magnesium chloride, and phosphate buffered saline. Upon thaw primary cells were cultured in a serum free medium comprising of Iscove's Modified Dulbecco Medium with bovine serum albumin, insulin, transferring, P2 mercaptoethanol and growth factors (100 ng/mL Flt3-ligand, 100 ng/mL stem cell factor, 20 ng/mL interleukin (IL)-3, IL-6 and 50 ng/mL granulocyte-colony stimulating factor) for 24 hours.
# Viable cells were enumerated using trypan blue dye exclusion and set up in culture in serum free medium (SFM) with the stated concentrations of Compound A and/or nilotinib. Following 72 hours (h) culture the cells were washed twice in phosphate buffered solution (PBS) and viable cells counted, again by trypan blue exclusion. These cells were then used for a series of colony forming and re-plating assays.
# In the colony forming assay (CFA) a single cell suspension is created in semisolid media with appropriate cytokines. This enables the assessment of colony formation from each individual cell. In order to measure the effect of compound A and/or nilotinib on the relative abundance of CD34+ CP CML progenitor cells, CFA were set up in METHOCULT with cells plated at an initial concentration of 4000 cells per mL in duplicate. Colonies were identified and enumerated 14-16 days (d) following plating.
# An accepted in vitro technique to approximate self-renewal activity is serial re-plating. Colonies derived from a CFA are individually plucked and re-dispersed in further METHOCULT. The capacity to reform colonies following re-dispersion is related to the number of primitive progenitors remaining within each individual colony and is therefore an indirect measurement of self-renewal. Following CFA 20-30 individual non-erythroid colonies from each experimental arm were then plucked with a p10 pipettor (one tip per colony using an inverted microscope) and carefully dispersed into 100 μL METHOCULT with a further 10 μL SFM in 96 well plates prior to incubation for a further 7d. Resultant secondary colonies were enumerated in each well and; in the case of wells containing secondary colonies; the entire contents were re-dispersed in a further 100 μL METHOCULT to assess tertiary colony formation.
# Colony assays were performed in METHOCULT with cells plated at an initial concentration of 4000 cells per mL in duplicate. Colonies were identified and enumerated 14-16 days (d) following plating. […]
# [4] = tested on: CML; conditions: standard of therapy for CML; cited from earlier work
SMILES,number of animals sacrificed to date [1],colony number upon secondary re-plating of the colonies ([2]; FIG. 9),colony formation in the first methylcellulose plating [2],"re-plating capacity (total secondary and tertiary colonies as percentage of untreated control) ([3]; 72 h culture with drug, first and second re-plate, FIG. 1 and 2)",proliferation index (PI) of re-plated colonies (AUC) ([3]; 4 experiments),response rates [4],"re-plating capacity (total number of secondary colonies) ([3]; 3d exposure, Compound A 10 nM and/or nilotinib 5 μM, 4 experiments, FIG. 6)"
"Cc1c(C(=O)Nc2ccc(N3C[C@@H](C)O[C@@H](C)C3)nc2)cccc1-c1ccc(OC(F)(F)F)cc1 [Compound A, 2-Methyl-4′-trifluoromethoxy-biphenyl-3-carboxylic acid [6-(cis-2,6-dimethyl-morpholin-4-yl)-pyridin-3-yl]-amide]",all,pronounced reduction in colony number,No reduction of colony formation,reduction in re-plating capacity,reduction in PI,,
Cc1ccc(NC(=O)c2ccc(CN3CCN(C)CC3)cc2)cc1Nc1nccc(-c2cccnc2)n1 [Imatinib mesylate],,,,,,more than 96%,
Cc1cn(-c2cc(NC(=O)c3ccc(C)c(Nc4nccc(-c5cccnc5)n4)c3)cc(C(F)(F)F)c2)cn1 [nilotinib],5,,No reduction of colony formation,,relative increase in PI,,non-significant increase in re-plating capacity
